Target: hERG potassium channel (Homo sapiens, UniProt Q12809)
Assay: hERG screening assay (PatchXpress patch clamp, CHO cells)

Chain of hERG potassium channel (Q12809 whole entry): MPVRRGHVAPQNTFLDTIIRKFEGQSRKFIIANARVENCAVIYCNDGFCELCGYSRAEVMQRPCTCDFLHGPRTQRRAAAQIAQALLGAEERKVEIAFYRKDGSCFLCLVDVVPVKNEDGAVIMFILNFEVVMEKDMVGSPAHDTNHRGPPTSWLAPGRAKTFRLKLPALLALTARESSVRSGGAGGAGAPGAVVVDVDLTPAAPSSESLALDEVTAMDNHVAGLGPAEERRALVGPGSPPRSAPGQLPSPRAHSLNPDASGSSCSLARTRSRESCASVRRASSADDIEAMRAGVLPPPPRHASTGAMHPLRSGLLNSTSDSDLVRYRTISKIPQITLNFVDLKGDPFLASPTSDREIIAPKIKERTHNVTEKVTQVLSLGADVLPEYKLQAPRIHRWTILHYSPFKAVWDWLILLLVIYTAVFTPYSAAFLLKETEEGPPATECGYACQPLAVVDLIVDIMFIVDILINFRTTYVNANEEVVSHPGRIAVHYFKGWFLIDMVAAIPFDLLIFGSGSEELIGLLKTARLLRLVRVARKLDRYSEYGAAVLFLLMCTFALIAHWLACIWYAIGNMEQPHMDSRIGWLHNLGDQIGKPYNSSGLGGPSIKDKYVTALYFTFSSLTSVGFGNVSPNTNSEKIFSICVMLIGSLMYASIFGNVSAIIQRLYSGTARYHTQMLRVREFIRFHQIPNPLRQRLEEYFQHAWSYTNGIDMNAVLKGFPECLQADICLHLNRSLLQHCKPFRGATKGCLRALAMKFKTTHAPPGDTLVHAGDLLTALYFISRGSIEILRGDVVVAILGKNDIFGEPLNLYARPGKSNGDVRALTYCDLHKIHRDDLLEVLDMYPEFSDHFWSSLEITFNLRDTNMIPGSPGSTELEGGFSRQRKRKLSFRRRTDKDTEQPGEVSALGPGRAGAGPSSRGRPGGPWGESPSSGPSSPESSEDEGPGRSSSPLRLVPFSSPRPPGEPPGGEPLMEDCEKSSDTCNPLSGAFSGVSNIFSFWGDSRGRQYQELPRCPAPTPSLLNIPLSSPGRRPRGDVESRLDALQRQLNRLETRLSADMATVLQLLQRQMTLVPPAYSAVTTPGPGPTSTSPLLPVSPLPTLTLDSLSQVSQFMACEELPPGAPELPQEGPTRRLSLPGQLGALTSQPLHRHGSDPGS

Compound	hERG Patch Clamp hERG % blk (1 μM test cmpd)	hERG Patch Clamp hERG % blk (10 μM test cmpd)
CC1=C(C(=O)OCc2ccccc2)C(c2ccc3ccccc3c2)c2c(C)n[nH]c2N1 (centres unmarked) [PT-325, benzyl 3,6-dimethyl-4-(naphthalen-2-yl)-4,7-dihydro-1H-pyrazolo[3,4-b]pyridine-5-carboxylate]	10%	36%
CCOC(=O)C1=C(C)Nc2nnnn2C1c1csc2ccccc12 (centres unmarked) [PT-017, ethyl 7-(benzo[b]thiophen-3-yl)-5-methyl-4,7-dihydrotetrazolo[1,5-a]pyrimidine-6-carboxylate]	10%	23.5%
CC1=C(C(=O)OCc2ccccc2)[C@@H](c2ccccc2-c2ccc(Cl)s2)n2nnnc2N1 [PT-237, (R)-benzyl 7-(2-(5-chlorothiophen-2-yl)phenyl)-5-methyl-4,7-dihydrotetrazolo[1,5-a]pyrimidine-6-carboxylate]	11.5%	22.5%
COc1ccc(COC(=O)C2=C(C)Nc3nnnn3C2c2cccc3ccccc23)cc1OC (centres unmarked) [PT-061, 3,4-dimethoxybenzyl 5-methyl-7-(naphthalen-1-yl)-4,7-dihydrotetrazolo[1,5-a]pyrimidine-6-carboxylate]	24%	46.5%
CC1=C(C(=O)OCc2ccccc2)C(c2ccccc2-c2ccc(C(=O)O)cc2)n2nnnc2N1 (centres unmarked) [PT-254, 2′-(6-(benzyloxycarbonyl)-5-methyl-4,7-dihydrotetrazolo[1,5-a]pyrimidin-7-yl)biphenyl-4-carboxylic acid]	15%	20%
CC1=C(C(=O)OCc2ccccc2)C(c2c(-c3ccc(C(=O)O)cc3)sc3ccccc23)n2nnnc2N1 (centres unmarked) [PT-294, 4-(3-(6-(benzyloxycarbonyl)-5-methyl-4,7-dihydrotetrazolo[1,5-a]pyrimidin-7-yl)benzo[b]thiophen-2-yl)benzoic acid]	12.5%	15.5%
CC1=C(C(=O)OCc2ccccc2)C(c2ccccc2N2CCN(S(C)(=O)=O)CC2)n2nnnc2N1 (centres unmarked) [PT-339, benzyl 5-methyl-7-(2-(4-(methylsulfonyl)piperazin-1-yl)phenyl)-4,7-dihydrotetrazolo[1,5-a]pyrimidine-6-carboxylate]	11.5%	43.5%
CC1=C(C(=O)OCc2ccc(Cn3cccn3)cc2)C(c2cccc3ccccc23)n2nnnc2N1 (centres unmarked) [PT-279, 4-((1H-pyrazol-1-yl)methyl)benzyl 5-methyl-7-(naphthalen-1-yl)-4,7-dihydrotetrazolo[1,5-a]pyrimidine-6-carboxylate]	12.5%	45%
CC1=C(c2nnc(CCc3ccccc3)o2)C(c2cccc3ccccc23)n2nnnc2N1 (centres unmarked) [PT-252, 2-(5-methyl-7-(naphthalen-1-yl)-4,7-dihydrotetrazolo[1,5-a]pyrimidin-6-yl)-5-phenethyl-1,3,4-oxadiazole]	10.5%	78%
C=CCOC(=O)C1=C(C)Nc2nnnn2C1c1cccc2ccccc12 (centres unmarked) [PT-319, allyl 5-methyl-7-(naphthalen-1-yl)-4,7-dihydrotetrazolo[1,5-a]pyrimidine-6-carboxylate]	10%	41%
CC1=C(C(=O)OCc2ccccc2)C(c2occc2-c2ccc(F)cc2)n2nnnc2N1 (centres unmarked) [PT-396, benzyl 7-(3-(4-fluorophenyl)furan-2-yl)-5-methyl-4,7-dihydrotetrazolo[1,5-a]pyrimidine-6-carboxylate]	10%	32%
CCOC(=O)C1=C(C)NC2=C(C(=O)CCC2)C1c1ccnc2ccccc12 (centres unmarked) [PT-190, ethyl 2-methyl-5-oxo-1,4,5,6,7,8-hexahydro-4,4′-biquinoline-3-carboxylate]	10.5%	32%
CCS(=O)(=O)N1CCN(c2cccc(OC)c2C2C(C(=O)OCc3ccccc3)=C(C)Nc3nnnn32)CC1 (centres unmarked) [PT-378, benzyl 7-(2-(4-(ethylsulfonyl)piperazin-1-yl)-6-methoxyphenyl)-5-methyl-4,7-dihydrotetrazolo[1,5-a]pyrimidine-6-carboxylate]	10%	41.5%
CCCC1=C(C(=O)OCC)C(c2ccc(C(=O)O)cc2)C2=C(CC(C)(C)CC2=O)N1 (centres unmarked) [PT-133, 4-(3-(ethoxycarbonyl)-7,7-dimethyl-5-oxo-2-propyl-1,4,5,6,7,8-hexahydroquinolin-4-yl)benzoic acid]	10%	12%
CC1=C(C(=O)O[C@@H](C)c2ccccc2)[C@@H](c2cccc3ccccc23)n2nnnc2N1 [PT-050, (R)-((S)-1-phenylethyl) 5-methyl-7-(naphthalen-1-yl)-4,7-dihydrotetrazolo[1,5-a]pyrimidine-6-carboxylate]	10%	53.5%
CC1=C(C(=O)OCc2ccccc2)C(c2c(Br)sc3ccccc23)n2nnnc2N1 (centres unmarked) [PT-386, benzyl 7-(2-bromobenzo[b]thiophen-3-yl)-5-methyl-4,7-dihydrotetrazolo[1,5-a]pyrimidine-6-carboxylate]	10%	16.5%
COc1cc(Cl)ccc1COC(=O)C1=C(C)Nc2nnnn2C1c1c(Cl)cccc1Cl (centres unmarked) [PT-306, 4-chloro-2-methoxybenzyl 7-(2,6-dichlorophenyl)-5-methyl-4,7-dihydrotetrazolo[1,5-a]pyrimidine-6-carboxylate]	10%	48.5%
COc1cc(Cl)ccc1COC(=O)C1=C(C)NC2=C(C(=O)CCC2)C1c1c(Cl)cccc1Cl (centres unmarked) [PT-303, 4-chloro-2-methoxybenzyl 4-(2,6-dichlorophenyl)-2-methyl-5-oxo-1,4,5,6,7,8-hexahydroquinoline-3-carboxylate]	12%	30.5%
CC1=C(C(=O)OCc2ccccc2)C(c2ccc(N(C)C)c3ccccc23)n2nnnc2N1 (centres unmarked) [PT-032, benzyl 7-(4-(dimethylamino)naphthalen-1-yl)-5-methyl-4,7-dihydrotetrazolo[1,5-a]pyrimidine-6-carboxylate]	19%	50.5%
CCOC(=O)C1=C(C)Nc2nnnn2C1c1ccccc1-n1ccnc1.Cl (centres unmarked) [PT-476, ethyl 7-(2-(1H-imidazol-1-yl)phenyl)-5-methyl-4,7-dihydrotetrazolo[1,5-a]pyrimidine-6-carboxylate hydrochloride]	17.5%	23%
COC(=O)c1ccc(-c2n[nH]c3c2C(c2cccc4ccccc24)C2=C(COC2=O)N3)cc1 (centres unmarked) [PT-085, methyl 4-(4-(naphthalen-1-yl)-5-oxo-4,5,7,8-tetrahydro-1H-furo[3,4-b]pyrazolo[4,3-e]pyridin-3-yl)benzoate]	34%	44.5%
CC1=C(C(=O)OCc2ccccc2)C(c2ccccc2-c2ccccc2)n2nnnc2N1 (centres unmarked) [PT-025, benzyl 7-(biphenyl-2-yl)-5-methyl-4,7-dihydrotetrazolo[1,5-a]pyrimidine-6-carboxylate]	11%	53%
COC(=O)C1=C(C)Nc2nnnn2C1c1cccc2ccccc12 (centres unmarked) [PT-512, methyl 5-methyl-7-(naphthalen-1-yl)-4,7-dihydrotetrazolo[1,5-a]pyrimidine-6-carboxylate]	10.5%	14%
CC1=C(C(=O)OCc2ccccc2)C(c2sccc2-c2ccc(F)cc2)n2nnnc2N1 (centres unmarked) [PT-397, benzyl 7-(3-(4-fluorophenyl)thiophen-2-yl)-5-methyl-4,7-dihydrotetrazolo[1,5-a]pyrimidine-6-carboxylate]	10%	25%
CC1=C(C(=O)OC(C)Cc2ccccc2)C(c2cccc3ccccc23)n2nnnc2N1 (centres unmarked) [PT-064, 1-phenylpropan-2-yl 5-methyl-7-(naphthalen-1-yl)-4,7-dihydrotetrazolo[1,5-a]pyrimidine-6-carboxylate]	20.5%	37.5%
CC1=C(C(=O)OCc2ccccc2)C(c2ccccc2N2CCCCC2)n2nnnc2N1 (centres unmarked) [PT-342, benzyl 5-methyl-7-(2-(piperidin-1-yl)phenyl)-4,7-dihydrotetrazolo[1,5-a]pyrimidine-6-carboxylate]	10%	47.5%
CC1=C(C(=O)OCc2ccccc2)C(c2nccs2)c2cn[nH]c2N1 (centres unmarked) [PT-369, benzyl 6-methyl-4-(thiazol-2-yl)-4,7-dihydro-1H-pyrazolo[3,4-b]pyridine-5-carboxylate]	10%	25%
CC(=O)c1ccc(-c2ccccc2C2C(C(=O)OCc3ccccc3)=C(C)Nc3nnnn32)cc1 (centres unmarked) [PT-415, benzyl 7-(4′-acetylbiphenyl-2-yl)-5-methyl-4,7-dihydrotetrazolo[1,5-a]pyrimidine-6-carboxylate]	10.5%	38.5%

Reference: US20090181986A1, “SUBSTITUTED HETEROCYCLIC COMPOUNDS” (priority 2007, published 2009)
